Measured values reported in patent US6506431B2, “Spore germination inhibitor and food containing the same” (Ajinomoto Co., Inc., priority 2000, dated 2003).

How the values were obtained:
Bacillus subtilis spores [1] = assay: Germination inhibition by combination of CPC and D-alanine in sufficient nutrients (Example 3); format: cell-based; conditions: 1 mg/ml each; for variation of the turbidity of the spore suspension at 600 nm (germination): 25 g/l Bacto-LB broth plus AGFK germinator, 37° C., 2 hours; for inhibition at 1000 µg/mL: Bacillus subtilis, 0.5 h, LB broth plus AGFK, variation of OD600 for 30 minutes, test group 1 = 100%, test group 2 = 0%, read-out: germination inhibition rate
Description: Thereupon, in order to examine germination-inhibitory effects by the combination of CPC and D-alanine which is a known germination-inhibitory substance, the following test groups were prepared. Spore suspension containing 0.1 mg/ml Bacillus subtilis spores, 20 mM Tris.HCl, pH 7.5. Spore suspension containing 0.1 mg/ml Bacillus subtilis, 25 g/l Bacto-LB broth, Miller (DIFCO) as sufficient nutrients, and 10 mM L-asparagine, 1 mM D-glucose, 1 mM D-fructose and 10 mM KCl (AGFK system) as germinator. Spore suspension as above containing the sufficient nutrients (Test Group 2) and further containing 1 mg/ml CPC. Spore suspension as above containing the sufficient nutrients (Test Group 2) and further containing 1 mg/ml D-alanine. Spore suspension as above containing the sufficient nutrients (Test Group 2) and further containing 1 mg/ml CPC and 1 mg/ml D-alanine. The above spore suspensions were allowed to react at 37° C. for 2 hours, and spore germination conditions were examined. The variation of the turbidity of each test group was measured through the above reaction at 600 nm using a spectrophotometer. […] After 2 hours, the turbidity became the same turbidity as the initial one, and growth subsequest to the germination (vegetative growth) was observed. […] Each inhibition rate was calculated based on the variation of OD600 value for 30 minutes from the start of measurement wherein the germination inhibition rate in the test group 1 is assigned 100% and that in the test group 2 is assigned 0%.

Bacillus subtilis spores [2] = assay: Spore germination-inhibitory effects by CPC, AGFK germinator (Example 2); format: cell-based; conditions: 1 mg/ml CPC, 37° C., 2 hours
Description: The germination-inhibitory activity was measured as follows: ½ volume of a sample was allowed to react with ½ volume of spore suspension (0.2 mg/ml Bacillus subtilis spores, 40 mM Tris HCl, pH 7.5) containing germinator (20 mM L-asparagine, 2 mM D-glucose, 2 mM D-fructose, 20 mM KCl) at 37° C. The spores gradually darkened with germination increase, and turbidity of the suspension decreased. Thereupon, the turbidity of the spore suspension was measured at 600 nm using a spectrophotometer, and a germination rate was determined by calculating the rate of decrease of turbidity. In order to examine the germination-inhibitory effects of CPC, the following tests were conducted. Spore suspension containing 0.1 mg/ml Bacillus subtilis spores, 20 mM Tris.HCl, pH 7.5. Spore suspension as above further containing 10 mM L-asparagine, 1 mM D-glucose, 1 mM D-fructose and 10 mM KCl as germinator. Spore suspension as above containing the germination (Test Group 2) and further containing 1 mg/ml CPC. The above spore suspensions were allowed to react at 37° C. for 2 hours, and spore germination conditions were examined. The turbidity of each test group after 2 hours was measured at 600 nm using a spectrophotometer. In the test group 2, the turbidity of the spore suspension was decreased remarkably compared with the start of the reaction, and sufficient germination of spores was found. […]

[3] = Solubility of CPC (properties); format: physicochemical

Compound | variation of the turbidity of the spore suspension at 600 nm (germination) (Bacillus subtilis spores [1]) | inhibition at 1000 µg/mL (Bacillus subtilis spores [1]) [%] | spore germination observed by phase-contrast microscope (Bacillus subtilis spores [2]; AGFK germinator) | spore germination by turbidity of the spore suspension at 600 nm (Bacillus subtilis spores [2]; germinator 10 mM L-asparagine, 1 mM D-glucose, 1 mM D-fructose, 10 mM KCl) | solubility [3]
C[C@@H](N)C(=O)O [D-alanine, reference compound] | growth subsequent to the germination was observed | 16 | – | – | –
NC(=O)c1cccc(C(=O)O)n1 [CPC, 6-carbamoyl-2-pyridine carboxylic acid] | growth subsequent to the germination was observed | 9 | germination of spores was not recognized | germination was not observed | Soluble in water, particularly alkaline water, and organic solvent, such as pyridine and DMSO
